Data reported in US20240398824A1, “Inhibition Of Rip Kinases For Treating Neurodegenerative Disorders” (The Johns Hopkins University, priority 2018, published 2024).

Columns and labels:
primary astrocytes = assay: A1 astrocyte conversion in primary astrocytes treated with PFF-activated microglia conditioned medium (MCM); assay type: cell-based, mouse; conditions: astrocytes 24 h with MCM from inhibitor-treated PFF-activated microglia; in words
Procedure: Primary neuron, microglia and astrocyte cell cultures, and α-synuclein PFE's treatment: NOD2 or RIPK2 knockout mice was obtained from Jackson Laboratories (Bar Harbor, ME, USA). Primary cortical neurons were prepared from embryonic day 15.5 pups and cultured in Neurobasal medium (Gibco) supplemented with B-27, 0.5 mM L-glutamine, penicillin and streptomycin (Invitrogen, Grand Island, NY, USA) on tissue-culture plates coated with poly-L-lysine. The neurons were maintained by changing the medium every 3-4 days. Primary microglial and astrocyte cultures were performed as described previously (PMID: 26157004). Whole brains from mouse pups at postnatal day 1 (P1) were obtained. […] The total protein concentration was determined using Pierce BCA protein assay kit (Thermo Scientific), and 15 or 50 μg ml^-1 of total protein was added to mouse primary neurons for the neuronal cell death assay. […] RNA concentration was measured spectrophotometrically using NanoDrop 2000 ([…]). […] The expression levels of targeted genes were normalized to the expression of β-actin and calculated based on the comparative cycle threshold Ct method (2-ΔΔCt).

[1] = test system: primary microglia activated with α-synuclein PFFs; assay: qPCR of A1 astrocyte inducers (TNFα, IL-1α, C1q) in primary microglia activated with α-synuclein PFFs; assay type: cell-based, mouse; conditions: inhibitor 10 μM 30 min, then α-synuclein PFFs 1 μg/mL 4 h; in words
Procedure: α-synuclein purification and α-synuclein PFFs preparation: Recombinant mouse α-synuclein proteins were purified as previously described with an IPTG-independent inducible pRK172 vector system (Nat Protoc. 9(9): 2135-46 (2014)). Endotoxin was depleted by ToxinEraser endotoxin removal kit (Genscript, NJ, USA). α-synuclein PFFs (5 mg ml^−1) was prepared in PBS while stirring with a magnetic stirrer (1,000 rpm at 37° C.). After a week of incubation of the α-synuclein protein, aggregates were diluted to 0.1 mg ml^−1 with PBS and sonicated for 30 s (0.5 s pulse on/off) at 10% amplitude (Branson Digital sonifier, Danbury, CT, USA). α-synuclein PFFs was validated using atomic force microscopy and transmission electron microscopy, and the ability to induce phospho-serine 129 α-synuclein (p-α-synSer129) was confirmed using immunostaining. α-synuclein PFFs was stored at −80° C. until use. […]
Comparative qPCR: The total RNA from cultured cells was extracted with RNA isolation kit (Qiagen, CA) following the instruction provided by the company. RNA concentration was measured spectrophotometrically using NanoDrop 2000 ([…]). […] The expression levels of targeted genes were normalized to the expression of β-actin and calculated based on the comparative cycle threshold Ct method (2-ΔΔCt).

Row | Structure (SMILES) | A1 astrocyte conversion (primary astrocytes) | release of A1 astrocyte inducer (TNFα, IL-1α, C1q) from microglia [1]
1 | CC(C)(C)S(=O)(=O)c1ccc2nccc(Nc3n[nH]c4ccc(F)cc34)c2c1 [GSK583, 6-(tert-butylsulfonyl)-N-(5-fluoro-1H-indazol-3-yl) quinolin-4-amine] | significantly suppress | significantly suppress
2 | COc1cc2ncnc(Nc3ccc(F)c(Cl)c3)c2cc1OCCCN1CCOCC1 [Gefitinib] | significantly suppress | significantly suppress
